Assay results taken from patent US20120225180A1, “SALTINESS-IMPROVING AGENT FOR SALTY FOOD AND DRINK” (priority 2009, published 2012).

Assay: Saltiness evaluation of shiokara (comparison evaluation of flavor by 10 panelists)
Assay type: in vivo
Conditions: for Evaluation A: the number of panelists who felt stimulation of saltiness / Evaluation B: the number of panelists who slightly felt stimulation of saltiness / Evaluation N: the number of panelists who judged that the stimulation of saltiness was reduced to mild saltiness / Flavor judgment: the number of panelists who judged it as most proper saltiness: 10 panelists
Experimental: Sedanenolide was added as a saltiness-improving agent (salty stimulation-reducing agent) of the present invention to commercially available salted squid to obtain shiokara containing sedanenolide at the concentrations shown in the following Table 1.
A: the number of panelists who felt stimulation of saltiness B: the number of panelists who slightly felt stimulation of saltiness N: the number of panelists who judged that the stimulation of saltiness was reduced to mild saltiness Flavor judgment: the number of panelists who judged it as most proper saltiness

[1] = shiokara containing 0.01 ppb sedanenolide
[2] = shiokara containing 0.01 ppm sedanenolide
[3] = shiokara containing 0.1 ppb sedanenolide
[4] = shiokara containing 0.1 ppm sedanenolide
[5] = shiokara containing 1 ppb sedanenolide
[6] = shiokara containing 1 ppm sedanenolide
[7] = shiokara containing 1 ppt sedanenolide
[8] = shiokara containing 10 ppm sedanenolide

CCCC[C@@H]1OC(=O)C2=C1CCC=C2 [sedanenolide]
saltiness improvement, overall result (amount of sedanenolide about 0.1 ppb to 1 ppm): particularly good results | improvement in stimulation of saltiness (low concentration of 0.01 ppb sedanenolide): some panelists felt some improvement in stimulation of saltiness | Evaluation A: the number of panelists who felt stimulation of saltiness [1]: 6 | Evaluation B: the number of panelists who slightly felt stimulation of saltiness [1]: 4 | Evaluation N: the number of panelists who judged that the stimulation of saltiness was reduced to mild saltiness [1]: 0 | Flavor judgment: the number of panelists who judged it as most proper saltiness [1]: 0 | stimulation of saltiness (shiokara containing 0.01 ppb to 10 ppm of sedanenolide): improved | Evaluation A: the number of panelists who felt stimulation of saltiness [2]: 2 | Evaluation B: the number of panelists who slightly felt stimulation of saltiness [2]: 2 | Evaluation N: the number of panelists who judged that the stimulation of saltiness was reduced to mild saltiness [2]: 6 | Flavor judgment: the number of panelists who judged it as most proper saltiness [2]: 3 | Evaluation A: the number of panelists who felt stimulation of saltiness [3]: 2 | Evaluation B: the number of panelists who slightly felt stimulation of saltiness [3]: 7 | Evaluation N: the number of panelists who judged that the stimulation of saltiness was reduced to mild saltiness [3]: 1 | Flavor judgment: the number of panelists who judged it as most proper saltiness [3]: 0 | Evaluation A: the number of panelists who felt stimulation of saltiness [4]: 1 | Evaluation B: the number of panelists who slightly felt stimulation of saltiness [4]: 2 | Evaluation N: the number of panelists who judged that the stimulation of saltiness was reduced to mild saltiness [4]: 7 | Flavor judgment: the number of panelists who judged it as most proper saltiness [4]: 4 | Evaluation A: the number of panelists who felt stimulation of saltiness [5]: 3 | Evaluation B: the number of panelists who slightly felt stimulation of saltiness [5]: 2 | Evaluation N: the number of panelists who judged that the stimulation of saltiness was reduced to mild saltiness [5]: 5 | Flavor judgment: the number of panelists who judged it as most proper saltiness [5]: 0 | Evaluation A: the number of panelists who felt stimulation of saltiness [6]: 0 | Evaluation B: the number of panelists who slightly felt stimulation of saltiness [6]: 1 | Evaluation N: the number of panelists who judged that the stimulation of saltiness was reduced to mild saltiness [6]: 9 | Flavor judgment: the number of panelists who judged it as most proper saltiness [6]: 2 | Evaluation A: the number of panelists who felt stimulation of saltiness [7]: 10 | Evaluation B: the number of panelists who slightly felt stimulation of saltiness [7]: 0 | Evaluation N: the number of panelists who judged that the stimulation of saltiness was reduced to mild saltiness [7]: 0 | Flavor judgment: the number of panelists who judged it as most proper saltiness [7]: 0 | Evaluation A: the number of panelists who felt stimulation of saltiness [8]: 0 | Evaluation B: the number of panelists who slightly felt stimulation of saltiness [8]: 1 | Evaluation N: the number of panelists who judged that the stimulation of saltiness was reduced to mild saltiness [8]: 9 | Flavor judgment: the number of panelists who judged it as most proper saltiness [8]: 1
